# From patent EP1953237A1, “A method for the production of short chained glycolipids” (ECOVER N.V., priority 2007, dated 2008)
# Where two headings read alike, the source gives them in different places.
# What was measured:
# M. furfur = experiment: Minimal inhibitory concentration, agar dilution with olive oil overlay; type: cell-based; conditions: 48 hours at 37°C, Sabouraud's dextrose agar with olive oil
# Protocol: The yeast M. furfur is one of the natural causes of dandruff formation. Since it is a lipophilic yeast, the in vitro growth must be stimulated by natural oils or other fatty substances when determining minimal inhibitory concentrations (MIC). We used the most common method, which is to overlay Sabouraud's dextrose agar containing cycloheximide (actidione) with olive oil.
# A dilution series (1, ½ ¼, 1/8, 1/16..) was prepared. One ml of this dilution was added to 3 petri dishes per concentration and mixed with the warm agar. After cooling a drop of the yeast culture suspension was dropped on the petri dish and left to grow for 48 hours at 37°C.
# The MIC was determined for azelaic acid (pa VWR) neutralized with NaOH, azelaic mixture with SL9:0 (from ex.O.1) and calcium purified azelaic mixture with SL9:0. Whereas a 30% azelaic solution was needed for complete inhibition was needed, only 20% of the (SL9-azelaic) mixture of ex.O.1 was needed.
# Candida bombicola = type: cell-based; conditions: for number of colony forming units: ester 30 g/l in total
# Protocol: A one litre baffled shake flask was filled with 200 ml medium according to Lang and co-workers (2000) and inoculated with Candida bombicola and left to grow at 30°C and 200 rpm. After 48 h 10 g/l Dodecyl glutarate was added. On day 5, 6 and 7 another 7.5 , 5 and 7.5 g/l ester was added. On day 10 the fermentation was stopped. The number of colony forming units was somewhat lower compared to fermentations on rapeseed oil or glucose. […] The sophorolipid yield as gravimetrically determined amounted 26 g/l. The residual ester concentration was 13 g/l. Dodecyl glutarate is a solid which was difficult to dose and tended to agglomerate, thus limiting the availability to Candida and probably causing part of the residual substrate. […] These peaks were identified by RP-HPLC-MS (Waters ZQ) using quadrupole electrospray negative ion detection (see figure 1). […] Both the lactonic and the acid diacetylated form were identified as well as traces of monoacetylated species. [formula]
# To verify whether the ester or the glutaric acid which may be released following hydrolysis during the fermentation were toxic, 200 ml cultures were set up in one litre shaking flasks at 200 rpm. After 48 hours glutaric acid was added; 0, 10 or 100 %, the latter corresponding to the maximum amount of glutaric acid after hydrolysis of 30 g/l dodecyl glutarate (which equals the total amount of substrate added for synthesis). Eight days after the initial addition of glutaric acid the fermentation was stopped. […] It is therefore concluded that the toxicity of dodecyl glutarate is due to the product itself, rather than to hydrolysis products.
# Taking into account the above results, a new experiment was set up in a Biostat B5 containing 3 litre medium to which 4g/l rapeseed oil was added in order to avoid toxic effects during the growth phase. From 48 hours onwards small portions of dodecyl glutarate, ester T0 in table 3 were added daily, totalling 145.5 gram during 7 days. Dodecyl glutarate has the same apparent chain length as stearic acid. After the last addition on day 8, the fermentation was run for another 48 hour and terminated 240 hours after the start. The fermentor was operated at 800 rpm mixing speed, 30°C and 1 vvm aeration, always assuring far higher oxygen concentrations than the 15% or less described in US6433152. After 140 hours the initial glucose was almost completely consumed and an additional 43 g/l was added. The pH was kept at 3.5 with 5 M NaOH and the oxygen saturation was varied between 70 and 85% during the production phase, rising 10 to 20 hours after each addition, which indicated the substrate was more or less consumed. The number of CFU in the production phase remained at approximately 6.10^9/ml, the dry cell weight at about 15 g/l, both values being considerably lower than typical values for rapeseed oil fermentations with resp. […] After about 200 hours more and more yeast cells changed aspect from the normal round shape to a flattened shape. This forms an indication of the stress the cells were experiencing due to the product formed and or the decreasing glucose concentration. […]
# A new T2 batch was produced with increased care to completely remove the solvent. This batch was not toxic, with the number of CFU remaining stable (above 10^9/ml) over time, independent of the substrate concentration.
# Shakeflask experiments with decyl heptanoate (ester T10 in table 2) gave similar results, indicating high toxicity for the first ester batch. […] The mass spectrometric analysis after alkaline hydrolysis of sophorolipids obtained from T10 ester, other than the obvious de novo sophorolipids and hydroxy dodecanoic acid is summarized in table 6 below. […] Note that again methyl terminated sophorolipids as well as sophorolipids with surplus glucose units were identified as de novo synthesized products. For both esters the dissolved oxygen concentration never came below 40% and averaged 65% (T2) and 63% (T10). […]
# [1] = to clarify 100 ml AD solution of 2.5 wt. % laureth sulphate and 10% NaOH
# Protocol: In this example the amount of hydrotrope needed to clarify a 100 ml AD solution of 2.5 wt. % laureth sulphate and 10% NaOH.
# [2] = shake flask, new/improved ester batch, solvent removed
# [3] = shake flask, 10 or 100 % of the amount released from 30 g/l dodecyl glutarate, 8 days
smiles,measurement,setting,value
O=C(O)CCCCCCCC(=O)O [azelaic acid],MIC (lowest concentration which completely inhibits growth),M. furfur,30%
CCCCCCCCCCCCOC(=O)CCCC [dodecyl pentanoate],substrate concentration from which toxicity was shown,"Candida bombicola; shake flask, first ester batch",≥ 10 mM
same,substrate toxicity,"Candida bombicola; shake flask, first ester batch",pronounced substrate toxicity
same,number of CFU,"Candida bombicola; shake flask, new batch, stable over time, independent of substrate concentration",above 10^9 /ml
same,substrate toxicity,Candida bombicola; [2],not toxic
"O=C(O)CCCC(=O)O [glutaric acid, reference compound]",growth in terms of colony forming units,Candida bombicola; [3],did not inhibit growth
same,sophorolipid production by Candida bombicola,Candida bombicola; [3],nor did it lower the sophorolipid production
CCCCCCCCCCOC(=O)CCCCCC [decyl heptanoate],substrate toxicity,"Candida bombicola; shake flask, first ester batch",high toxicity
same,number of CFU,"Candida bombicola; shake flask, improved batch, after reduction",3 x 10^9 CFU/ml
same,number of CFU,"Candida bombicola; shake flask, improved batch, before reduction","6,5 x 10^9 CFU/ml"
same,substrate toxicity,Candida bombicola; [2],slightly toxic
CCO [Ethanol],% active matter needed,[1],26%
"CCCCCCCCCCCCOC(=O)CCCC(=O)O [dodecyl glutarate, Dodecyl glutarate]",toxicity,Candida bombicola; Biostat B5 fermentor,moderate toxicity
same,number of CFU in the production phase,"Candida bombicola; Biostat B5 fermentor, 145.5 gram ester during 7 days",approximately 6.10^9 /ml
same,dry cell weight,"Candida bombicola; Biostat B5 fermentor, production phase",about 15 g/l
same,toxicity effect of the ester,Candida bombicola; shake flask fermentation,moderate toxicity effect
same,number of colony forming units,"Candida bombicola; shake flask, at the end of the experiment (day 10)",~1.10^9 /ml
same,number of colony forming units,"Candida bombicola; shake flask, value before the drop (printed 'approx. 4', x 10^9 implied)",approx. 4 /ml
